Data from paper PMC11169557, “The Goldilocks paradigm: comparing classical machine learning, large language models, and few-shot learning for drug discovery applications” (Communications Chemistry, 2024).
Counter-ions that a name gives are not always drawn.

Target: MARK1 (Homo sapiens, UniProt Q9P0L2)
Test: MARK1 inhibition, IC50 determination (dose-response) using Z'-LYTE assay
Type: biochemical
Conditions: for IC50: Z'-LYTE assay, non-linear regression (3-parameters); for Active (Measured): hits of the initial screen followed up with dose-response curves, 1 = true MARK1 inhibitor; for MARK1 inhibitor (result in words): out of the 13 tested compounds

Sequence of MARK1 (Q9P0L2 whole entry): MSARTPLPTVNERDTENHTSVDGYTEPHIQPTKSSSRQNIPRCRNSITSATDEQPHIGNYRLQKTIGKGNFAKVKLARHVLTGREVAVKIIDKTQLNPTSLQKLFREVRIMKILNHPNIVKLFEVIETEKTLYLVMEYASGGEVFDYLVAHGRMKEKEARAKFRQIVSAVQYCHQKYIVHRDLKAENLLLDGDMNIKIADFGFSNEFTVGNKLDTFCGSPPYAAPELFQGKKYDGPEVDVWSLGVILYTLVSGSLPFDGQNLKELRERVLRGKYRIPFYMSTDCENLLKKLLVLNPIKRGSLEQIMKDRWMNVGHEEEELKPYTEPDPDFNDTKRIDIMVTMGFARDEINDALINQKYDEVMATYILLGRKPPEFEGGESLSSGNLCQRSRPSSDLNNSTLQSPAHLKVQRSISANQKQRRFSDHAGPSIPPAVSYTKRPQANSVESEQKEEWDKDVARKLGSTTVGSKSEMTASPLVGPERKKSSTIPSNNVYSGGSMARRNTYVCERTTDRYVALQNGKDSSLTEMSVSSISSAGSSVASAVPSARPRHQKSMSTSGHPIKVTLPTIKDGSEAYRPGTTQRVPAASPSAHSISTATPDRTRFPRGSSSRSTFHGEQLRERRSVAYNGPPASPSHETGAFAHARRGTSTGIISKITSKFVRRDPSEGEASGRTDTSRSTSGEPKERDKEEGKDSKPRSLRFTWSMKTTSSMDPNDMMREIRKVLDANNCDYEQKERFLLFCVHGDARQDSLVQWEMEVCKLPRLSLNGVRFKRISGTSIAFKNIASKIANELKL

Row | SMILES | IC50 [nM] | Active (Measured) | MARK1 inhibitor (result in words)
1 | O=C(Nc1c[nH]nc1-c1nc2ccc(CN3CCOCC3)cc2[nH]1)NC1CC1 [AT9283] | 185 | 1 | true novel MARK1 active inhibitors
2 | CCS(=O)(=O)N1CC(CC#N)(n2cc(-c3ncnc4[nH]ccc34)cn2)C1 [Baricitinib] | 166 | 1 | true novel MARK1 active inhibitors
3 | COc1cc(Nc2c(C#N)cnc3cc(OCCCN4CCN(C)CC4)c(OC)cc23)c(Cl)cc1Cl [Bosutinib] | – | 0 | –
4 | Cc1cc(Nc2ncc(Cl)c(Nc3ccccc3S(=O)(=O)C(C)C)n2)c(OC(C)C)cc1C1CCNCC1 [Ceritinib] | – | 0 | –
5 | Cc1cc(C(C#N)c2ccc(Cl)cc2)c(Cl)cc1NC(=O)c1cc(I)cc(I)c1O (stereo not drawn) [Closantel] | – | 0 | –
6 | C[C@@H](Oc1cc(-c2cnn(C3CCNCC3)c2)cnc1N)c1c(Cl)ccc(F)c1Cl [Crizotinib] | – | 0 | –
7 | CC(C)(C)NC[C@H](O)COc1cccc2c1CCCC2=O.Cl [Levobunolol (hydrochloride)] | – | 0 | –
8 | CN1CCN(c2ccc(Nc3ncc4cc(C#N)c(=O)n(C5CCCC5)c4n3)cc2)CC1 [ON123300] | 219 | 1 | true novel MARK1 active inhibitors
9 | C[C@@H]1CCN(C(=O)CC#N)C[C@@H]1N(C)c1ncnc2[nH]ccc12 [Tofacitinib citrate] | – | 1 | true novel MARK1 active inhibitors
10 | CC[C@@H]1CN(C(=O)NCC(F)(F)F)C[C@@H]1c1cnc2cnc3[nH]ccc3n12 [Upadacitinib] | 327 | 1 | true novel MARK1 active inhibitors
11 | COc1cc(O)c2c(c1)oc(=O)c1c3cc(O)c(O)cc3oc21 [Wedelolactone] | – | 0 | –
12 | CCCCCCCCc1ccc(CCC(N)(CO)CO)cc1 [fingolimod] | – | 0 | –
